5 compounds from patent publication US10202377B2, “3-(1H-benzo[D]imidazol-2-yl)-1H-pyrazolo[3,4-C]pyridine and therapeutic uses thereof” (Samumed, LLC, priority 2014, dated 2019) can be followed below.

In assay [1] the test system is primary human fibroblasts derived from IPF patients (LL29 cells). Nature of the assay: Inhibition of fibrosis (αSMA staining) in TGF-β1-treated primary human fibroblasts from IPF patients. Format: cell-based. As to conditions: Fibroblast, 96 h, TGF-β1 20 ng/mL, 4 days. The gist of the method: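 LL29 IPF fibroblasts in F12 with 1% FBS were stimulated with TGF-β1 (20 ng/mL) and incubated 4 days at 37 °C. SYTOX-positive dead cells were excluded, and αSMA-positive cells were counted by immunostaining as % of total. Values were normalized to TGF-β1/DMSO wells on the same plate, and EC50 derived.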

The subject of assay [2] is Wnt activity (Sp5-Luc reporter, SW480 colon carcinoma cells). Nature of the assay: Sp5-Luc Wnt reporter gene screening assay in SW480 colon carcinoma cells. Conditions: Homo sapiens.
Procedure: The screening assay for Wnt activity is described as follows.
SW480 colon carcinoma cells were transduced with a lentiviral vector expressing luciferase with a human Sp5 promoter consisting of a sequence of eight TCF/LEF binding sites. SW480 cells stably expressing the Sp5-Luc reporter gene and a hygromycin resistance gene were selected by treatment with 150 μg/ml of hygromycin for 7 days. These stably transduced SW480 cells were expanded in cell culture and used for all further screening activities. For Sp5-Luc reporter gene assays, the cells were plated at 10,000 cells/well in 96-well plates with growth medium containing 10% fetal calf serum and incubated overnight at 37° C. and 5% CO2. […] Compound transfer from serially diluted source plates to assay plates containing the cells was accomplished using a pintool (Multimek 96, Beckman equipped with V&P Scientific FP1S50H pins) based liquid handling protocol. This protocol used a slotted pin to transfer 50 nl of compound from a source plate well to an assay plate well containing 50 μl of cells in growth medium. […] Control wells received 50 nl of DMSO treatment for normalization and calculating IC50 values. The treated cells were incubated at 37° C. and 5% CO2 for an additional forty-two hours. Following incubation, the growth medium was removed and 50 μl of BrightGlo luminescence reagent (Promega) was added to each well of the 96-well assay plates. The plates were placed on an orbital shaker for 5 min and then luminescence was quantified on the Victor3 (Perkin Elmer) plate reader.
Assay [3] has as its system primary human mesenchymal stem cells (hMSCs). Nature of the assay: Chondrogenesis induction in primary human mesenchymal stem cells (nodule imaging, Rhodamine B/Nile Red). Format: cell-based. Conditions: 6 days, dose at which the compound reached maximum chondrogenesis activity, dose range 10-2700 nM. On the procedure: The above synthesized compounds were screened using primary human mesenchymal stem cells (hMSCs) to determine their ability to induce chondrogenesis (process by which cartilage is developed).
Human Mesenchymal Stem Cell Culture: Primary human mesenchymal stem cells (hMSCs) were purchased from Lonza (Walkersville, Md.) and expanded in Mesenchymal Stem Cell Growth Media (Lonza). Cells between passage 3 and 6 were used for the experiments.
Compound Screening: Each compound was dissolved in DMSO as a 10 mM stock and used to prepare compound source plates. Serial dilution (1:3, 6-point dose-response curves from 2700 nM to 10 nM) and compound transfer was performed using the ECHO 550 (Labcyte, Sunnyvale, Calif.) into 96-well clear bottom assay plates (Greiner Bio-One) with appropriate DMSO backfill for a final DMSO concentration of 0.03%. hMSCs were plated at 20,000 cells/well in 250 μL/well Incomplete Chondrogenic Induction Medium (Lonza; DMEM, dexamethasone, ascorbate, insulin-transferrin-selenium [ITS supplement], gentamycin-amphotericin [GA-1000], sodium pyruvate, proline and L-glutamine). TGF-β3 (10 ng/mL) was used as a positive control for differentiation while negative control wells were treated with 75 nL DMSO for normalization and calculating EC50 values. Cells were incubated at 37° C. and 5% CO2 for 6 days. To image chondrogenic nodules, the cells were fixed using 4% formaldehyde (Electron Microscopy Sciences), and stained with 2 μg/mL Rhodamine B (Sigma-Aldrich) and 20 μM Nile Red (Sigma-Aldrich) [Johnson K., et. al, A Stem Cell-Based Approach to Cartilage Repair, Science, (2012), 336(6082), 717-721]. The nodules imaged (4 images per well at 4× magnification) by excitation at 531 nm and emission at 625 nm and quantified using the CellInsight CX5 (Thermo Scientific). Number of nodules in each well was normalized to the average of 3 DMSO treated wells on the same plate using Excel (Microsoft Inc.). The normalized averages (fold change over DMSO) of 3 replicate wells for each compound concentration were calculated. Due to solubility limitations of some of the compounds, curve fitting was incomplete leading to inaccurate EC50 determinations.
Using TGF-β3 as a positive control, the concentration of test compounds required to induce equivalent levels of chondrogenesis is reported. In addition, the maximum activity of each compound and the respective dose that each compound reached maximum chondrogenesis activity is reported.

pEC50, pIC50: −log10 of the molar value.

In assay [1], `Cc1ccc(-c2cccc3[nH]c(-c4n[nH]c5cnc(-c6cncc(N)c6)cc45)nc23)s1` [Compound 367, 5-(3-(4-(5-Methylthiophen-2-yl)-1H-benzo[d]imidazol-2-yl)-1H-pyrazolo[3,4-c]pyridin-5-yl)pyridin-3-amine] showed a pEC50 of 8.05. In addition, the pIC50 in assay [2] was 8.46. In addition, the “Conc (nM) of Max. activity” value in assay [3] is 30 nM.

The compound `CC(=O)c1ccc(-c2cccc3[nH]c(-c4n[nH]c5cnc(-c6cncc(NC(=O)CC(C)C)c6)cc45)nc23)s1` [Compound 392, N-(5-(3-(4-(5-Acetylthiophen-2-yl)-1H-benzo[d]imidazol-2-yl)-1H-pyrazolo[3,4-c]pyridin-5-yl)pyridin-3-yl)-3-methylbutanamide] had a pEC50 in assay [1] of 6.57. The compound also had a pIC50 in assay [2] of 7.49. Moreover, the “Conc (nM) of Max. activity” value in assay [3] is 2700 nM.

Take `Cc1ccncc1-c1cc2c(-c3nc4c(-c5cc(F)cc(CNS(C)(=O)=O)c5)cccc4[nH]3)n[nH]c2cn1` [Compound 421, N-(3-Fluoro-5-(2-(5-(4-methylpyridin-3-yl)-1H-pyrazolo[3,4-c]pyridin-3-yl)-1H-benzo[d]imidazol-4-yl)benzyl)methanesulfonamide]: in assay [1], the pEC50 was 8.05. The pIC50 in assay [2] was 8.00. Also, the “Conc (nM) of Max. activity” value in assay [3] is listed as 100 nM.

In assay [1], `CC(C)Nc1cncc(-c2cc3c(-c4nc5c(-c6cc(F)cc(NCCN(C)C)c6)cccc5[nH]4)n[nH]c3cn2)c1` [Compound 454, N^1-(3-Fluoro-5-(2-(5-(5-(isopropylamino)pyridin-3-yl)-1H-pyrazolo[3,4-c]pyridin-3-yl)-1H-benzo[d]imidazol-4-yl)phenyl)-N^2,N^2-dimethylethane-1,2-diamine] gave a pEC50 of 6.93. The pIC50 in assay [2] is 7.29. Moreover, in assay [3], the “Conc (nM) of Max. activity” value was 300 nM.

In assay [1], `Fc1cccc(-c2cccc3[nH]c(-c4n[nH]c5cnc(-c6cn[nH]c6)cc45)nc23)c1` [Compound 939, 3-(4-(3-Fluorophenyl)-1H-benzo[d]imidazol-2-yl)-5-(1H-pyrazol-4-yl)-1H-pyrazolo[3,4-c]pyridine] gave a pEC50 of 8.05. In assay [2], the negative-log IC50 (pIC50) was 7.60. Moreover, the “Conc (nM) of Max. activity” value in assay [3] is 30 nM.
